Experiments:
human IRAK-4 = human IRAK-4 (Homo sapiens (Human), UniProt Q9NWZ3); experiment: Measurement of human IRAK-4 inhibitory activity (TR-FRET, peptide substrate phosphorylation, 10 μM ATP); format: biochemical; settings: 1 nM IRAK-4, 10 μM ATP, 23° C., 30 minutes; average values
In short: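 With 1 nM IRAK-4, 0.5 μM biotinylated peptide and 10 μM ATP, compound incubated 30 min at 23 °C in 50 mM HEPES pH 7.2 with Mg2+/Mn2+. Stopped with EDTA plus europium-cryptate anti-phosphopeptide antibody and streptavidin-XL665, 60 min at 23 °C. Activity taken as the 665/620 nm TR-FRET ratio.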

[1] = test system: LPS-stimulated TNFα production in THP-1 cells; experiment: LPS-stimulated TNFα production inhibition test using human acute monocytic leukemia cell strain THP-1; format: cell-based; settings: Homo sapiens, THP-1, 4 h, LPS 2.5 ng/mL, average values
In short: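 THP-1 cells were preincubated with compound for 1 h at 37 °C, then stimulated with LPS (2.5 ng/mL final) for 4 h. Supernatant TNFα was quantified by HTRF (620/665 nm ratio) against a calibration curve. IC50 came from a 4-parameter logistic fit, with no-LPS set as 100% and no-compound as 0% suppression.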

Chain of human IRAK-4 (Q9NWZ3 whole entry): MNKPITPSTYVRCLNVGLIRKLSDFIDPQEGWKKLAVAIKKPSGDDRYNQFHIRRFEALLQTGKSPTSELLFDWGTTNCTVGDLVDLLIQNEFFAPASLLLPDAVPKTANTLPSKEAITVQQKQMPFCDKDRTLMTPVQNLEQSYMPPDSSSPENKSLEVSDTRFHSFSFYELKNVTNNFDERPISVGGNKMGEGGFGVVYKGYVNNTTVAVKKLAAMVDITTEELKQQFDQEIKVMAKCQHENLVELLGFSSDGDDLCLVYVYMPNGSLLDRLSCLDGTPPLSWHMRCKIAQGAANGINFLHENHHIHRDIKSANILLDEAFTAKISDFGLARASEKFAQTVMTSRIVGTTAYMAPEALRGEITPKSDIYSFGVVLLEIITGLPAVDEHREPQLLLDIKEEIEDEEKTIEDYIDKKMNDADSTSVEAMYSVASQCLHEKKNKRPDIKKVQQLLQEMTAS

SMILES	IC50 (human IRAK-4)	IC50 [1]
CCCOCc1ncc(-c2ccn3nc(NC(=O)[C@H]4C[C@@H](N5CCN(C(=O)c6ccnc(C)c6)C[C@@H]5C)C4)cc3c2)cn1 [e-02-14]	0.00164 µM	0.139 µM
C[C@H]1CN(C(=O)c2ccon2)CCN1[C@H]1C[C@@H](C(=O)Nc2nc3ccc(-c4cnc(CO[C@H]5CCC[C@@H]5O)nc4)cc3s2)C1 [b-04-39]	0.00066 µM	0.044 µM
C[C@H]1CN(C(=O)c2ccnc(C(F)(F)F)c2)CCN1[C@H]1C[C@@H](C(=O)Nc2nc3ccc(-c4cnc(CO[C@H]5CCC[C@@H]5O)nc4)cc3s2)C1 [b-04-35]	0.00208 µM	0.037 µM
Cn1cc(NC2CC(C(=O)Nc3nc4ccc(-c5cnc(CO[C@H]6CCC[C@@H]6O)nc5)cc4s3)C2)cn1 (stereo partly drawn) [b-02-65]	0.00238 µM	0.163 µM
COCCN1CCN(C2CC(C(=O)Nc3nc4ccc(-c5cnc(CO[C@H]6CCC[C@@H]6O)nc5)cc4s3)C2)CC1 (stereo partly drawn) [b-02-25]	0.00198 µM	0.199 µM
O=C(Nc1nc2ccc(-c3cnc(CO[C@H]4CCC[C@@H]4O)nc3)cc2s1)C1CC2(CCN(C(=O)C3COC3)CC2)C1 [d-03-09]	0.00147 µM	0.158 µM
CC(=O)N1CCC2(CC1)CC(C(=O)Nc1nc3ccc(-c4cnc(CO[C@H]5CCC[C@@H]5O)nc4)cc3s1)C2 [d-03-01, 7-Acetyl-N-(6-(2-((((1S,2S)-2-hydroxycyclopentyl)oxy)methyl)pyrimidin-5-yl)benzo[d]thiazol-2-yl)-7-azaspiro[3,5]nonane-2-carboxamide]	0.00138 µM	0.067 µM
O=C(Nc1nc2ccc(-c3cnc(COC4CCCC4)nc3)cc2s1)C1CC1 [a-04-01, N-(6-(2-(Cyclopentoxymethyl)pyrimidin-5-yl)-1,3-benzo[d]thiazol-2-yl)cyclopropanecarboxamide]	0.00138 µM	0.261 µM
O=C(Nc1cc2cc(-c3cnc(CO[C@H]4CCC[C@@H]4O)nc3)ccn2n1)C1CC1 [e-01-01, N-(5-(2-((((1S,2S)-2-hydroxycyclopentyl)oxy)methyl)pyrimidin-5-yl)pyrazolo[1,5-a]pyridin-2-yl)cyclopropanecarboxamide]	0.00289 µM	0.279 µM
C[C@H]1COCCN1C1CC(C(=O)Nc2nc3ccc(-c4cnc(CO[C@H]5CCC[C@@H]5O)nc4)cc3s2)C1 (stereo partly drawn) [b-02-06]	0.00134 µM	0.066 µM
C[C@@H]1C[C@H]1C(=O)Nc1nc2ccc(-c3cnc(CO[C@H]4CCC[C@@H]4O)nc3)cc2s1 [d-01-01, (1R,2R)—N-(6-(2-((((1S,2S)-2-Hydroxycyclopentyl)oxy)methyl)pyrimidin-5-yl)benzo[d]thiazol-2-yl)-2-methylcyclopropane-1-carboxamide]	0.00131 µM	0.085 µM
O=C(Nc1nc2ccc(-c3cnc(CO[C@H]4CCC[C@@H]4O)nc3)c(OC[C@H]3CCOC3)c2s1)C1CC1 [c-06-03]	0.0171 µM	0.277 µM
C[C@H]1CN(C(=O)c2cncnc2)CCN1[C@H]1C[C@@H](C(=O)Nc2nc3ccc(-c4cnc(CO[C@H]5CCC[C@@H]5O)nc4)cc3s2)C1 [b-04-38]	0.00085 µM	0.087 µM
Cc1nc(C)c(C(=O)N2CCN([C@H]3C[C@@H](C(=O)Nc4nc5ccc(-c6cnc(CO[C@H]7CCC[C@@H]7O)nc6)cc5s4)C3)[C@@H](C)C2)s1 [b-04-32]	0.00157 µM	0.05 µM
C[C@@H]1CN(C2CC(C(=O)Nc3nc4ccc(-c5cnc(CO[C@H]6CCC[C@@H]6O)nc5)cc4s3)C2)C[C@H](C)O1 (stereo partly drawn) [b-02-19]	0.00254 µM	0.144 µM
O=C(Nc1nc2ccc(-c3cnc(CO[C@H]4CCC[C@@H]4O)nc3)cc2s1)[C@@H]1C[C@@H]1F [a-01-04]	0.00173 µM	0.151 µM
CC(C)[C@@H]1COCCN1C1CC(C(=O)Nc2nc3ccc(-c4cnc(CO[C@H]5CCC[C@@H]5O)nc4)cc3s2)C1 (stereo partly drawn) [b-02-34]	0.00252 µM	0.116 µM

SMILES	IC50 (human IRAK-4)	IC50 [1]
C[C@H]1CN(C(=O)CC2CCOCC2)CCN1[C@H]1C[C@@H](C(=O)Nc2nc3ccc(-c4cnc(CO[C@H]5CCC[C@@H]5O)nc4)cc3s2)C1 [b-04-04]	0.00269 µM	0.049 µM
O=C(Nc1nc2ccc(-c3cnc(CO[C@H]4CCC[C@@H]4O)nc3)cc2s1)C1CC(N2CCOC3(CCCC3)C2)C1 (stereo partly drawn) [b-02-81]	0.00364 µM	0.202 µM
O=C(Nc1nc2ccc(-c3cnc(CO[C@H]4CCC[C@@H]4O)nc3)cc2s1)C1CC(N2CCc3ccccc32)C1 (stereo partly drawn) [b-02-66]	0.005 µM	0.227 µM
Cc1ccnc(C(=O)N2CCN([C@H]3C[C@@H](C(=O)Nc4nc5ccc(-c6cnc(CO[C@H]7CCC[C@@H]7O)nc6)cc5s4)C3)[C@@H](C)C2)c1 [b-04-47]	0.00054 µM	0.026 µM
COc1c(-c2cnc(CO[C@H]3CCC[C@@H]3O)nc2)ccn2nc(NC(=O)C3CC3)cc12 [e-04-01, N-(5-(2-((((1S,2S)-2-Hydroxycyclopentyl)oxy)methyl)pyrimidin-5-yl)-4-methoxypyrazolo[1,5-a]pyridin-2-yl)cyclopropanecarboxamide]	0.00374 µM	0.431 µM
O=C(Nc1nc2ccc(-c3cnc(CO[C@H]4CCC[C@@H]4O)nc3)cc2s1)C1CC(N2CCOC[C@H]2C(F)(F)F)C1 (stereo partly drawn) [b-02-55]	0.00297 µM	0.15 µM
CCCOCc1ncc(-c2ccc3nc(NC(=O)C4CC4)sc3c2)cn1 [a-02-01, N-(6-(2-(Propoxymethyl)pyrimidin-5-yl)benzo[d]thiazol-2-yl)cyclopropanecarboxamide]	0.0161 µM	0.33 µM
Cc1noc(C)c1C(=O)N1CCN([C@H]2C[C@@H](C(=O)Nc3nc4ccc(-c5cnc(CO[C@H]6CCC[C@@H]6O)nc5)cc4s3)C2)[C@@H](C)C1 [b-04-27]	0.0016 µM	0.108 µM
O=C(Nc1nc2ccc(-c3cnc(CO[C@H]4CCC[C@@H]4O)nc3)cc2s1)C1CC(N2C[C@@H]3C[C@H]2CO3)C1 (stereo partly drawn) [b-02-31]	0.00236 µM	0.194 µM
CO[C@]1(C)C[C@H](C(=O)Nc2nc3ccc(-c4cnc(CO[C@H]5CCC[C@@H]5O)nc4)cc3s2)C1 [d-01-03]	0.00216 µM	0.175 µM
O=C(Nc1nc2ccc(-c3cnc(CO[C@H]4CC(F)(F)C[C@@H]4O)nc3)cc2s1)C1CC1 [a-03-01, N-(6-(2-((((1 S,2S)-4,4-Difluoro-2-hydroxycyclopentyl)oxy)methyl)pyrimidin-5-yl)benzo[d]thiazol-2-yl)cyclopropanecarboxamide]	0.00141 µM	0.057 µM
O=C(Nc1nc2ccc(-c3cnc(CO[C@H]4CCC[C@@H]4O)nc3)cc2s1)C1CC(N2CCC3(CC2)COC3)C1 (stereo partly drawn) [b-02-74]	0.00157 µM	0.189 µM
O=C(Nc1nc2ccc(-c3cnc(CO[C@H]4CCC[C@@H]4O)nc3)cc2s1)C1CC(N2CCOCC2)C1 (stereo partly drawn) [b-01-01, N-(6-(2-((((1S,2S)-2-Hydroxycyclopentyl)oxy)methyl)pyrimidin-5-yl)benzo[d]thiazol-2-yl)-3-moipholinocyclobutane-1-carboxamide]	0.00339 µM	0.154 µM
C[C@H]1CN(C(=O)C2CCCO2)CCN1[C@H]1C[C@@H](C(=O)Nc2nc3ccc(-c4cnc(CO[C@H]5CCC[C@@H]5O)nc4)cc3s2)C1 (stereo partly drawn) [b-04-05]	0.00285 µM	0.054 µM
O=C(Nc1nc2ccc(-c3cnc(CO[C@H]4CCC[C@@H]4O)nc3)cc2s1)C1CC(N2CCCCO2)C1 (stereo partly drawn) [b-02-77]	0.0026 µM	0.187 µM
CCCOCc1ncc(-c2ccc3nc(NC(=O)[C@H]4C[C@@H](N5CCN(C(=O)c6ccc(C(F)(F)F)cn6)C[C@@H]5C)C4)sc3c2)cn1 [b-04-26]	0.00122 µM	0.086 µM
